Laboratory results: patent publication US20230066011A1, “PYRROLOPYRIMIDINE DERIVATIVE, AND PHARMACEUTICAL COMPOSITION FOR PREVENTING OR TREATING PROTEIN KINASE-RELATED DISEASE COMPRISING SAME AS ACTIVE INGREDIENT” (VORONOI CO., LTD., priority 2019, published 2023)

Columns and labels:
human GST-DYRK1A = biological target: T1, human GST-DYRK1A (Homo sapiens, UniProt Q13627); test: GST-DYRK1A enzyme inhibition, ADP-Glo kinase assay; format: biochemical; settings: ATP 10 μM, GST-DYRK1A full length, read-out: DYRK1 IC50
T1 construct: purified human GST-DYRK1A (full length, Thermo Scientifics) enzyme; purchased Thermo Scientifics
Method: (§1) To evaluate an inhibitory activity of the compound according to the present invention against LRRK2, LRRK2 (G2019S), DYRK1, CLK1, and TTK kinases, experiments were performed as follows.
(§2) Each of the Example compounds was reacted with a purified human GST-DYRK1A (full length, Thermo Scientifics) enzyme to evaluate an ability to inhibit an enzyme using a method as described below. A composition of 40 mM Tris-HCl (pH 7.4), 20 mM MgCl2, 0.5 mg/mL BSA, and 50 μM DTT was used as a reaction buffer, and all reactions of test substances were performed in the reaction buffer. In the test, purified ATP (10 μM) and a specific substrate solution were reacted with a human GST-DYRK1A (full length, 10 ng) enzyme at 25° C. for an hour, and the enzyme activities were then determined using an in vitro ADP-Glo™ kinase assay (Promega). An enzyme-activity reaction solution, an ADP-Glo reaction solution, and an enzyme-ability detection solution were reacted at a ratio of 2:2:1 to measure a degree of inhibition of the enzyme activity with luminescence. The degree of inhibition of the enzyme activity according to the treatment concentration of each of the compounds was calculated based on the fluorescence of the enzyme activity of the solvent control which was not treated with the compound. In this case, the concentration of each of the compounds inhibiting 50% of the enzyme activity was determined to be an IC50 (nM) value, and the IC50 (nM) value of each of the compounds was determined from 3 sets of data, and calculated using Prism (Version 5.01; GraphPad) software.

human GST-CLK1 = biological target: T2, human GST-CLK1 (Homo sapiens, UniProt P49759); test: GST-CLK1 enzyme inhibition, ADP-Glo kinase assay; format: biochemical; settings: ATP 10 μM, GST-CLK1 129-end
T2 construct: purified human GST-CLK1 (129-end, SignalChem) enzyme; purchased SignalChem
Method: as §1
as §2, with “GST-CLK1 (129-end, SignalChem)” for “GST-DYRK1A (full length, Thermo Scientifics)”, “GST-CLK1 (129-end, 3” for “GST-DYRK1A (full length, 10”, “value. The” for “value, and the”

T2 sequence (P49759 129-484 limits assumed): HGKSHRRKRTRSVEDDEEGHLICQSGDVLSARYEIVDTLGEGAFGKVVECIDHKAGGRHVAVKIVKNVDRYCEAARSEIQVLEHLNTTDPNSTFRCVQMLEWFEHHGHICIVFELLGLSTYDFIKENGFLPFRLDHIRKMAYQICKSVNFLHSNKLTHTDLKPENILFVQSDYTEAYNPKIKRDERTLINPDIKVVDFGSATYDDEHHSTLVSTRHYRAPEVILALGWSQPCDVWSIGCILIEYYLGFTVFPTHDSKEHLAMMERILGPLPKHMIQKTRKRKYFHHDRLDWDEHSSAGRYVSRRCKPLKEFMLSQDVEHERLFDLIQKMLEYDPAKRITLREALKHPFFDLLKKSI

Compound | IC50 (human GST-DYRK1A) | IC50 (human GST-CLK1)
COc1cc(P2(=O)CCN(C3COC3)CC2)ccc1Nc1nc(NC2COC2)c2c(C#N)c[nH]c2n1 [Example 311, 2-((2-methoxy-4-(1-(oxetan-3-yl)-4-oxido-1,4-azaphosphinan-4-yl)phenyl)amino)-4-(oxetan-3-ylamino)-7H-pyrrolo[2,3-d]pyrimidine-5-carbonitrile] | 301 to 1000 nM | 301 to 1000 nM
O=C(c1ccc(Nc2nc(NCC3CCC3)c3c(C(F)(F)F)c[nH]c3n2)c2c1OCCO2)N1CCOCC1 [Example 193, (8-((4-((cyclobutylmethyl)amino)-5-(trifluoromethyl)-7H-pyrrolo[2,3-d]pyrimidin-2-yl)amino)-2,3-dihydrobenzo[b][1,4]dioxin-5-yl)(morpholino)methanone] | 301 to 1000 nM | 301 to 1000 nM
COc1cc(P(C)(C)=O)ccc1Nc1nc(NCC2CC2)c2c(C#N)c[nH]c2n1 [Example 273, 4-((cyclopropylmethyl)amino)-2-((4-(dimethylphosphoryl)-2-methoxyphenyl)amino)-7H-pyrrolo[2,3-d]pyrimidine-5-carbonitrile] | 301 to 1000 nM | 101 to 300 nM
CCCNc1nc(Nc2ccc(C(=O)N3CCN(C4COC4)CC3)c3c2OCCO3)nc2[nH]cc(C#N)c12 [Example 284, 2-((8-(4-(oxetan-3-yl)piperazine-1-carbonyl)-2,3-dihydrobenzo[b] [1,4]dioxin-5-yl)amino)-4-(propylamino)-7H-pyrrolo[2,3-d]pyrimidine-5-carbonitrile] | 301 to 1000 nM | < 100 nM
N#Cc1c[nH]c2nc(Nc3ccc(C(=O)N4CCOCC4)c4c3OCCO4)nc(N[C@@H]3CCOC3)c12 [Example 127, (R)-2-((8-(morpholine-4-carbonyl)-2,3-dihydrobenzo[b][1,4]dioxin-5-yl)amino)-4-((tetrahydrofuran-3-yl)amino)-7H-pyrrolo[2,3-d]pyrimidine-5-carbonitrile] | 301 to 1000 nM | < 100 nM
COc1cc(P(C)(C)=O)ccc1Nc1nc(NCC(C)C)c2c(C#N)c[nH]c2n1 [Example 255, 2-((4-(dimethylphosphoryl)-2-methoxyphenyl)amino)-4-(isobutylamino)-7H-pyrrolo[2,3-d]pyrimidine-5-carbonitrile] | 301 to 1000 nM | 301 to 1000 nM
COc1cc(P(C)(C)=O)ccc1Nc1nc(NCC(C)C)c2c(C(F)(F)F)c[nH]c2n1 [Example 370, (4-((4-(isobutylamino)-5-(trifluoromethyl)-7H-pyrrolo[2,3-d]pyrimidin-2-yl)amino)-3-methoxyphenyl) dimethyl-phosphine oxide] | 301 to 1000 nM | < 100 nM
COc1cc(P2(=O)CCN(C3CC3)CC2)ccc1Nc1nc(NCC2CCC2)c2c(C#N)c[nH]c2n1 [Example 306, 4-((cyclo-butylmethyl)amino)-2-((4-(1-cyclopropyl-4-oxido-1,4-azaphosphinan-4-yl)-2-methoxyphenyl)a-mino)-7H-pyrrolo[2,3-d]pyrimidine-5-carbonitrile] | 301 to 1000 nM | 301 to 1000 nM
COc1cc(P2(=O)CCN(C3CC3)CC2)ccc1Nc1nc(NCC2CC2)c2c(C#N)c[nH]c2n1 [Example 304, 2-((4-(1-cyclopropyl-4-oxido-1,4-azaphosphinan-4-yl)-2-methoxyphenyl)a-mino)-4-((cyclo-propylmeth-yl)amino)-7H-pyrrolo[2,3-d]pyrimidine-5-carbonitrile] | 301 to 1000 nM | 301 to 1000 nM
CC[C@H](C)Nc1nc(Nc2ccc(P(C)(C)=O)cc2OC)nc2[nH]cc(C#N)c12 [Example 267, (S)-4-(sec-butylamino)-2-((4-(dimethylphosphoryl)-2-methoxyphenyl)amino)-7H-pyrrolo[2,3-d]pyrimidine-5-carbonitrile] | 301 to 1000 nM | 301 to 1000 nM
COc1cc(S(C)(=O)=O)ccc1Nc1nc(NCC2CCC2)c2c(C(F)(F)F)c[nH]c2n1 [Example 198, N^4-(cyclobutylmethyl)-N^2-(2-methoxy-4-(methylsulfonyl)phenyl)-5-(trifluoromethyl)-7H-pyrrolo[2,3-d]pyrimidine-2,4-diamine] | 301 to 1000 nM | 301 to 1000 nM
CC[C@H](C)Nc1nc(Nc2ccc(C(=O)N3CC(CO)(CO)C3)c3c2OCCO3)nc2[nH]cc(C#N)c12 [Example 331, (S)-2-((8-(3,3-bis(hydroxy-methyl)azetidine-1-carbonyl)-2,3-dihydrobenzo[b] [1,4]dioxin-5-yl)amino)-4-(sec-butylamino)-7H-pyrrolo[2,3-d]pyrimidine-5-carbonitrile] | 301 to 1000 nM | < 100 nM
N#Cc1c[nH]c2nc(Nc3ccc(C(=O)N4CCC(N5CCOCC5)CC4)c4c3OCCO4)nc(NC3CCCCC3)c12 [Example 142, 4-(cyclohexylamino)-2-((8-(4-morpholinopiperidine-1-carbonyl)-2,3-dihydrobenzo[b][1,4]dioxin-5-yl)amino)-7H-pyrrolo[2,3-d]pyrimidine-5-carbonitrile] | 301 to 1000 nM | < 100 nM
CCCCNc1nc(Nc2ccc(C(=O)N3CC(CO)(CO)C3)c3c2OCCO3)nc2[nH]cc(C#N)c12 [Example 341, 2-((8-(3,3-bis (hydroxymethyl)azetidine-1-carbonyl)-2,3-dihydrobenzo [b][1,4]dioxin-5-yl)amino)-4-(butylamino)-7H-pyrrolo[2,3-d]pyrimidine-5-carbonitrile] | 301 to 1000 nM | < 100 nM

Next, values leading:

IC50 (human GST-DYRK1A) | IC50 (human GST-CLK1) | Compound
301 to 1000 nM | < 100 nM | COc1cc(P2(=O)CCN(C3CC3)CC2)ccc1Nc1nc(N[C@H]2CCOC2)c2c(C#N)c[nH]c2n1 [Example 300, (S)-2-((4-(1-cyclopropyl-4-oxido-1,4-azaphosphinan-4-yl)-2-methoxyphenyl)a-mino)-4-((tetrahydrofuran-3-yl)amino)-7H-pyrrolo[2,3-d]pyrimidine-5-carbonitrile]
301 to 1000 nM | < 100 nM | COc1cc(P2(=O)CCN(C3COC3)CC2)ccc1Nc1nc(N[C@H]2CCOC2)c2c(C#N)c[nH]c2n1 [Example 301, (S)-2-((2-methoxy-4-(1-(oxetan-3-yl)-4-oxido-1,4-azaphosphinan-4-yl)phenyl)amino)-4-((tetrahydrofuran-3-yl)amino)-7H-pyrrolo[2,3-d]pyrimidine-5-carbonitrile]
101 to 300 nM | 301 to 1000 nM | CCNc1nc(Nc2ccc(P(C)(C)=O)cc2OC)nc2[nH]cc(C#N)c12 [Example 252, 2-((4-(dimethylphosphoryl)-2-methoxyphenyl)amino)-4-(ethylamino)-7H-pyrrolo[2,3-d]pyrimidine-5-carbonitrile]
101 to 300 nM | < 100 nM | CCNc1nc(Nc2ccc(C(=O)N3CCN(C4COC4)CC3)c3c2OCCO3)nc2[nH]cc(C#N)c12 [Example 281, 4-(ethylamino)-2-((8-(4-(oxetan-3-yl)piperazine-1-carobnyl)-2,3-dihydrobenzo[b][1,4]dioxin-5-yl)amino)-7H-pyrrolo[2,3-d]pyrimidine-5-carbonitrile]
101 to 300 nM | < 100 nM | CCNc1nc(Nc2ccc(P(C)(C)=O)cc2OC)nc2[nH]cc(C(F)(F)F)c12 [Example 368, (4-((4-(ethylamino)-5-(trifluoromethyl)-7H-pyrrolo[2,3-d]pyrimidin-2-yl)amino)-3-methoxyphenyl) dimethyl-phosphine oxide]
101 to 300 nM | < 100 nM | CCNc1nc(Nc2ccc(C(=O)N3CCC(N4CCOCC4)CC3)c3c2OCO3)nc2[nH]cc(C#N)c12 [Example 264, 4-(ethyalmino)-2-((7-(4-morpholino-1-carbonyl)benzo[d][1,3]dioxol-4-yl)amino)-7H-pyrrolo[2,3-d]pyrimidine-5-carbonitrile]
101 to 300 nM | 101 to 300 nM | CCCNc1nc(Nc2ccc(P(C)(C)=O)cc2OC)nc2[nH]cc(C#N)c12 [Example 254, 2-((4-(dimethylphosphoryl)-2-methoxyphenyl)amino)-4-(propylamino)-7H-pyrrolo[2,3-d]pyrimidine-5-carbonitrile]
